In patent publication US20070021434A1, “NON-NUCLEOSIDE ANTI-HEPACIVIRUS AGENTS AND USES THEREOF” (Migenix Inc., priority 2005, published 2007) one finds IC50 data, which are given here for 14 compounds.

In the assay the target is HCV RdRp (NS5B) (UniProt P26663). In kind it is biochemical, hepatitis C virus.
Sequence of HCV RdRp (NS5B) (P26663 whole entry, looked up): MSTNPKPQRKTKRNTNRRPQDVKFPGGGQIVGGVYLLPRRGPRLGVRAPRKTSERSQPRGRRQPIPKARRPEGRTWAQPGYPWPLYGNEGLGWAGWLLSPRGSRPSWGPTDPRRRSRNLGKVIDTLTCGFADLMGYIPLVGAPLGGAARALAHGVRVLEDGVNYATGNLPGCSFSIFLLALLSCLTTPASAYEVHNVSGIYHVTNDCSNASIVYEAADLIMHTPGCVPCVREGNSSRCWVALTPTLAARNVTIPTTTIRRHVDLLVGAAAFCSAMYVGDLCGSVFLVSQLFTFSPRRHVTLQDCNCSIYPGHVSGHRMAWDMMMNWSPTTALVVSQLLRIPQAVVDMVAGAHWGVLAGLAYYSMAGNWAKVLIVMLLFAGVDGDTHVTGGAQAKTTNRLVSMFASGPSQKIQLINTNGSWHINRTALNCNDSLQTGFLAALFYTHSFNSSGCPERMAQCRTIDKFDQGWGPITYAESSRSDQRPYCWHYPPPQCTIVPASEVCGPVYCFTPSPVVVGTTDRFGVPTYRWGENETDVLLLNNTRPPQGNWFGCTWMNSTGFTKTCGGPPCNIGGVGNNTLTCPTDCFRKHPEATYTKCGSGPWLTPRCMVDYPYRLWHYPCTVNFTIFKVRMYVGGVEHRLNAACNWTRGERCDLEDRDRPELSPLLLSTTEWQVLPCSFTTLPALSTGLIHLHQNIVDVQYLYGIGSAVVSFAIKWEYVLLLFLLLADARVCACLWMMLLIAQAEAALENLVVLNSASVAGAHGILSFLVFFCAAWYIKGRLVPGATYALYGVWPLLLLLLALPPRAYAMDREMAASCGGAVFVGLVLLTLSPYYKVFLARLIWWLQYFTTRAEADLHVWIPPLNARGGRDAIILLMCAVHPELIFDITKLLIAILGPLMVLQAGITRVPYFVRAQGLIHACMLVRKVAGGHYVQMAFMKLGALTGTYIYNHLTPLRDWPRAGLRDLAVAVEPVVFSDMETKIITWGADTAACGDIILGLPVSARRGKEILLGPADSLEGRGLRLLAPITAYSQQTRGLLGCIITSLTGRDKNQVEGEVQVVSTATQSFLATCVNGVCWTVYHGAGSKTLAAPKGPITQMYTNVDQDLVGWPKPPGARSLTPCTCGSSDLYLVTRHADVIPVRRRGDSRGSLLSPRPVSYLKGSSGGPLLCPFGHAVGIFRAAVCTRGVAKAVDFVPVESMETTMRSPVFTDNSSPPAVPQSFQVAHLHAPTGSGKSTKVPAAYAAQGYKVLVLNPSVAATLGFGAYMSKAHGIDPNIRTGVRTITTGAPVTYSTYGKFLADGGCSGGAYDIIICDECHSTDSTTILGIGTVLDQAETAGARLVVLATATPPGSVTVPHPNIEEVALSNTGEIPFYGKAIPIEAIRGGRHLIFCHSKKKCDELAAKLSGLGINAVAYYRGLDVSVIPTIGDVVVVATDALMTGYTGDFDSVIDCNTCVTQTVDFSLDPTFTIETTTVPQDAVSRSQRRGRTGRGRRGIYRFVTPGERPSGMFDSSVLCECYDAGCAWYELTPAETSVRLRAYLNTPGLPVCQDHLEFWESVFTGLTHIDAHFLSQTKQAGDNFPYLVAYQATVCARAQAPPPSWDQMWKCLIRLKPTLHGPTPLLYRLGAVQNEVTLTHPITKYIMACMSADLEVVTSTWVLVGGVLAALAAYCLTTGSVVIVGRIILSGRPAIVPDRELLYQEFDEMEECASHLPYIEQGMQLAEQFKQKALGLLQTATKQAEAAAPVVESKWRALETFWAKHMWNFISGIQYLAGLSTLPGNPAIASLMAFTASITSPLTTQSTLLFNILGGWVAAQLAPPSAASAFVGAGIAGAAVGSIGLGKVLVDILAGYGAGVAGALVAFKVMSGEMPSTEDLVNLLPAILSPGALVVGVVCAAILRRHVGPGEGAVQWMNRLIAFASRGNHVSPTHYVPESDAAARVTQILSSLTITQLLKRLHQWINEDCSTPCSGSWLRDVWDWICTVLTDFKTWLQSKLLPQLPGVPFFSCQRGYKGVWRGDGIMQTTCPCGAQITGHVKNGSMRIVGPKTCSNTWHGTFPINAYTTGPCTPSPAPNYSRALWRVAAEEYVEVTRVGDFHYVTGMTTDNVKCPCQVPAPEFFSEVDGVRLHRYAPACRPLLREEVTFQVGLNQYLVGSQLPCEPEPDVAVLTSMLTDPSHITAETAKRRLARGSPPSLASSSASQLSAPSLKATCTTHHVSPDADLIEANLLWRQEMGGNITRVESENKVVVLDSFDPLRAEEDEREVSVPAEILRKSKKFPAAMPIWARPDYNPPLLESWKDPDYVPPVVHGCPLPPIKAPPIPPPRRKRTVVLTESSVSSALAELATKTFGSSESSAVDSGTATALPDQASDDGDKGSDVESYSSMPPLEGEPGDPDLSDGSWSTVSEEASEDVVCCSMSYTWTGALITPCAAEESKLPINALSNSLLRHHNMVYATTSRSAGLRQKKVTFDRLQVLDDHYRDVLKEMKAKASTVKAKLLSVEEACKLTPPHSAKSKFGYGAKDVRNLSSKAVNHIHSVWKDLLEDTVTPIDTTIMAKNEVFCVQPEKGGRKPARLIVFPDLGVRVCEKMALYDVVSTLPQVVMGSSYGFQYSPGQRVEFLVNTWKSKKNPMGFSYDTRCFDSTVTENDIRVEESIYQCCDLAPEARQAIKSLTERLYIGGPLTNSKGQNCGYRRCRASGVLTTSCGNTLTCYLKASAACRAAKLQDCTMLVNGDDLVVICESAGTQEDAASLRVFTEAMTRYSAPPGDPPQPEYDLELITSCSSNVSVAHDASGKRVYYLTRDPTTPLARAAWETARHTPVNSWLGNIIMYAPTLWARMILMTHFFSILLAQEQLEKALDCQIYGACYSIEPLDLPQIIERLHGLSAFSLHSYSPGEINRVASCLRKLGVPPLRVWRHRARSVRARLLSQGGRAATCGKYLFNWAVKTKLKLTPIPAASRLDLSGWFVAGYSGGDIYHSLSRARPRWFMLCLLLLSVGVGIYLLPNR
One may read the IC50 as the midpoint of a concentration-inhibition curve. Compound `Cc1ccc(NC(=O)C(CCCCN)NS(=O)(=O)c2ccc(C(F)(F)F)cc2)cc1` [Compound 397, (S)-6-AMINO-2-(4-TRIFLUOROMETHYL-BENZENESULFONYLAMINO)-HEXANOIC ACID P-TOLYLAMIDE] displayed an IC50 of over 50 µM.
For `Cc1ccc(NC(=O)C(CCCCN)NC(=O)c2ccccc2-c2ccccc2)cc1` [Compound 54, (S)-BIPHENYL-2-CARBOXYLIC ACID (5-AMINO-1-P-TOLYLCARBAMOYL-PENTYL)-AMIDE] the value was over 50 µM.
The same measure for `COc1ccccc1NCC(=O)N[C@@H](CCCCN)C(=O)Nc1ccc(C)cc1` [Compound 357, (S)-6-AMINO-2-[2-(2-METHOXY-PHENYLAMINO)-ACETYLAMINO]-HEXANOIC ACID P-TOLYLAMIDE]: over 50 µM; for `Cc1ccc(NC(=O)C(CCCCN)NC(=O)Nc2ccc(CN(C)c3ccc(C)cc3)cc2)cc1` [Compound 292, (S)-6-AMINO-2-(3-{4-[(METHYL-P-TOLYL-AMINO)-METHYL]-PHENYL}-UREIDO)-HEXANOIC ACID P-TOLYLAMIDE]: over 50 µM; for `Cc1ccc(NC(=O)C(CCCN)NC(=O)Nc2ccc(-c3ccccc3)cc2)cc1` [Compound 188, (S)-5-AMINO-2-(3-BIPHENYL-4-YL-UREIDO)-PENTANOIC ACID P-TOLYLAMIDE]: over 50 µM.
The same measure for `COc1ccc(CNCC(=O)N[C@@H](CCCCN)C(=O)Nc2ccc(C)cc2)cc1` [Compound 343, (S)-6-AMINO-2-[2-(4-METHOXY-BENZYLAMINO)-ACETYLAMINO]-HEXANOIC ACID P-TOLYLAMIDE]: over 50 µM; for `Cc1ccc(NC(=O)C(CCCNC(=O)C2CCCN2)NC(=O)OCC2c3ccccc3-c3ccccc32)cc1` [Compound 220, (S)-{4-[R-(PYRROLIDINE-2-CARBONYL)-AMINO]-1-P-TOLYLCARBAMOYL-BUTYL}-CARBAMIC ACID 9H-FLUOREN-9-YLMETHYL ESTER]: over 50 µM; for `Cc1ccc(NC(=O)[C@H](CCCCN)NC(=O)CNc2ccc3c(c2)CCC3)cc1` [Compound 369, (S)-6-AMINO-2-[2-(INDAN-5-YLAMINO)-ACETYLAMINO]-HEXANOIC ACID P-TOLYLAMIDE]: over 50 µM.
`Cc1cc2cc(NC(=O)C(CCCCN)NC(=O)OCC3c4ccccc4-c4ccccc43)ccc2[nH]1` [Compound 38, (S)-[5-AMINO-1-(2-METHYL-1H-INDOL-5-YLCARBAMOYL)-PENTYL]-CARBAMIC ACID 9H-FLUOREN-9-YL METHYL ESTER] had a half-inhibitory concentration (IC50) of 10 to 50 µM.
`NCCC[C@@H](NC(=O)Nc1ccc(OCc2ccccc2)cc1)C(=O)Nc1ccc(C2CCCCC2)cc1` [Compound 202, (R)-5-AMINO-2-[3-(4-BENZYLOXY-PHENYL)-UREIDO]-PENTANOIC ACID (4-CYCLOHEXYL-PHENYL)-AMIDE]: the IC50 is under 10 µM.
For `CC(C)(C)c1ccc(NC(=O)[C@H](Cc2ccc(CN)cc2)NC(=O)Nc2ccc(OCc3ccccc3)cc2)cc1` [Compound 174, (S)-3-(4-AMINOMETHYL-PHENYL)-2-[3-(4-BENZYLOXY-PHENYL)-UREIDO]-N-(4-TERT-BUTYL-PHENYL)-PROPIONAMIDE] the value was under 10 µM.
The same measure for `O=C(Nc1ccc(C2CCCCC2)cc1)C1CN(C(=O)OCC2c3ccccc3-c3ccccc32)CCN1` (centres unmarked) [Compound 157, 3-(4-CYCLOHEXYL-PHENYLCARBAMOYL)-PIPERAZINE-1-CARBOXYLIC ACID 9H-FLUOREN-9-YLMETHYL ESTER]: over 50 µM; for `NCCCCC(NC(=O)OCC1c2ccccc2-c2ccccc21)C(=O)NCc1ccccc1` (stereo in doubt) [Compound 21, (S)-(5-AMINO-1-BENZYLCARBAMOYL-PENTYL)-CARBAMIC ACID 9H-FLUOREN-9-YLMETHYL ESTER]: over 50 µM; for `Cc1ccc(NC(=O)C(CCCN)NC(=O)Nc2ccc(-c3ccccc3)cc2)cc1` [Compound 191, (R)-5-AMINO-2-(3-BIPHENYL-4-YL-UREIDO)-PENTANOIC ACID P-TOLYLAMIDE]: over 50 µM.
